Like-named read-outs stand apart in the source and are kept apart here.
Experiments:
[1] = test system: Aspergillus species; test: In vitro antifungal activity against Aspergillus species; format: cell-based; settings: Aspergillus species (n = 30); Espinel-Ingroff's methodology
Method: (§1) The in vitro anti-fungal activities of the compounds of the formulas II, III and IV against forty-one species of Candida, thirty species of Aspergillus and nine species of Cryptococcus are summarized in Table 5. […] This Aspergillus pulmonary infection model in mice was performed in accordance with the procedures of David Loebenberg et al. entitled "In vitro and in vivo activity of Sch 42427, the active enantiomer of the antifungal agent Sch 39304" published in Antimicrobial Agents and Chemotherapy (1992), Vol. 36, pp. 498-501.
(§2) In Vitro Antifungal Activity(mcg/mL)
^2 In vitro activity against Aspergillus measured in accordance with
EspinelIngroff's Methodology

[2] = test system: Cryptococcus neoformans; test: In vitro antifungal activity against Cryptococcus neoformans; format: cell-based
Method: as §1, §2
(§3) ^3 In vitro activity measured in accordance with procedures for NCCLS

[3] = test system: fungal infection; test: Antifungal activity in in vivo tests in mice; parameters: species or system mouse; settings: for antifungal activity in in vivo tests in mice versus existing antifungal agents: versus itraconazole, fluconazole and azoles of US 5,039,676 and WO 93/09114
Method: as §1

[4] = test system: Candida species; test: In vitro antifungal activity against Candida species; format: cell-based
Method: as §1, §2, §3

[5] = In vivo hydrolysis of prodrug; settings: II to III; III to IV
Description: The compound of formula II hydrolyzes in vivo to the compound of formula III; III then hydrolyzes in vivo to the compound of formula IV.

[6] = test system: Candida albicans; test: Mice with a systemic Candida albicans infection; format: in vivo, mouse; Candida albicans; settings: 10 mg/kg
[7] = test system: Aspergillus fumigatus; test: Aspergillus pulmonary infection model in mice; format: in vivo, mouse; Aspergillus fumigatus; settings: 10 mg/kg
Method: as §1

[8] = test system: Candida, Aspergillus and Cryptococcus; test: In vitro antifungal activity, comparison of geometric mean MICs; format: cell-based; settings: comparison among II, III and IV
Method: as §1

[9] = Pharmacokinetic studies in human tissues and serum (metabolism); format: in vitro ADME
[10] = Plasma pharmacokinetics of formula IV in mice after intravenous di-NMG salt; format: in vivo, mouse (male Charles River); parameters: AUC (of formula IV), time zero to 24 hrs: unit not given here; settings: for AUC (of formula IV), time zero to 24 hrs: Table 3, mouse plasma, IV 20 mg/kg formula IV equivalent of di-NMG salt
Method: Concentrations of the compound of formula IV in pooled mouse^1
plasma (2 mice/pool) following intravenous administration of a 20
mg/kg of the compound of formula IV dose equivalent of the di-NMG
salt of the compound of this invention represented by the formula II in
^1 Male Charles River mice having an average body weight of 18-20 g
mg/kg of compound of formula IV dose equivalent of the di-NMG
salt of the compound of the prior art represented by formula V
PHARMACOKINETIC ("PK") PARAMETERS OF THE
COMPOUND OF FORMULA IV IN MOUSE^1 PLASMA
FOLLOWING INTRAVENOUS ADMINISTRATION OF 20 MG/KG
OF COMPOUND OF FORMULA IV DOSE EQUIVALENT OF THE
DI-NMG SALTS OF THE COMPOUNDS OF FORMULAS II AND V
IN STERILE WATER TO MICE.

[11] = Water solubility; format: physicochemical
[12] = read-out: G mean MICs (geometric mean MIC)

Row | SMILES | MIC [1] [µg/mL] | MIC [2, 12] [µg/mL] | MIC ([2]; read-out: MIC Range) [µg/mL] | antifungal activity in in vivo tests in mice versus existing antifungal agents [3] | MIC [4, 12] [µg/mL] | MIC ([4]; read-out: MIC Range) [µg/mL] | site of hydrolysis in vivo [5] | AUC (of formula IV), time zero to 24 hrs [10] | other results
1 | CC[C@@H]([C@H](C)O)n1ncn(-c2ccc(N3CCN(c4ccc(OC[C@@H]5CO[C@@](Cn6cncn6)(c6ccc(F)cc6F)C5)cc4)CC3)cc2)c1=O [Formula IV, reference compound] | 0.0156 to 1 | 0.04 | 0.015 to 0.5 | unexpectedly better than that of existing antifungal agents | 0.2 | 0.0156 to 8 |  |  | 
2 | CC[C@@H]([C@H](C)OC(=O)CCCOP(=O)(O)O)n1ncn(-c2ccc(N3CCN(c4ccc(OC[C@@H]5CO[C@@](Cn6cncn6)(c6ccc(F)cc6F)C5)cc4)CC3)cc2)c1=O [Formula II, 5-[[2(S)-[4-[4-[4-[4-[[(R-cis)-5-(2,4-difluorophenyl)-tetrahydro-5-(1H-1,2,4-triazol-1-ylmethyl)-3-furanyl]methoxy]phenyl]-1-piperazinyl]phenyl]-4,5-dihydro-5-oxo-1H-1,2,4-triazol-1-yl]-1(S)-methylbutyl]oxy]-5-oxobutyl phosphate] |  | 1.9 | 0.125 to 32 |  | 7.5 |  | primarily in the serum and in tissues (liver, lung and kidney) |  | survival at day 9 [6]: 100%; survival [7]: 70%; in vivo activity in two mice models ([3]; systemic Candida albicans and pulmonary Aspergillus fumigatus): good in vivo activity; in vitro antifungal activity, comparison of geometric mean MICs [8]: much lower; metabolism [9]: metabolized to the compound of formula IV via the metabolite represented by formula III
3 | CC[C@@H]([C@H](C)OC(=O)CCCOP(=O)(O)O)n1ncn(-c2ccc(N3CCN(c4ccc(OC[C@@H]5CO[C@@](Cn6cncn6)(c6ccc(F)cc6F)C5)cc4)CC3)cc2)c1=O [Formula II.2 NMG] |  |  |  |  |  |  |  | 79.1 | blood levels of the compound of formula IV ([10]; mice, intravenous, in water): superior blood levels; pharmacokinetic parameters of formula IV versus those from di-NMG salt of formula V ([10]; mice, intravenous, side-by-side comparison): unexpectedly superior; water solubility [11]: water soluble
4 | CC[C@@H]([C@H](C)OC(=O)CCCO)n1ncn(-c2ccc(N3CCN(c4ccc(OC[C@@H]5CO[C@@](Cn6cncn6)(c6ccc(F)cc6F)C5)cc4)CC3)cc2)c1=O [Formula III, 2(S)-[4-{4-{4-{4-[[(R-Cis)-2-(2,4-difluorophenyl)-tetrahydro-2-(1H-1,2,4-triazol-1-ylmethyl)-4-furanyl]methoxy]phenyl]-1-piperazinyl]phenyl]-4,5-dihydro-5-oxo-1H-1,2,4-triazol-1-yl]-1-(S)-methylbutyl-4-hydroxy-butanoate] | 0.0313 to 2 | 0.09 | 0.0156 to 0.5 | unexpectedly better than that of existing antifungal agents | 0.3 | 0.0156 to 8 | primarily in the serum |  | 
5 | CC[C@@H]([C@H](C)OC(=O)CCCCOP(=O)(O)O)n1ncn(-c2ccc(N3CCN(c4ccc(OC[C@@H]5CO[C@@](Cn6cncn6)(c6ccc(F)cc6F)C5)cc4)CC3)cc2)c1=O [Formula V.2 NMG, reference compound] |  |  |  |  |  |  |  | 36.7 | 

Reference: patent US6043245A, “Tetrahydrofuran antifungal phosphate” (Schering Corporation, priority 1998, dated 2000)
